ChEMBL document CHEMBL3784918, “Novel 2,4-diaminopyrimidines bearing tetrahydronaphthalenyl moiety against anaplastic lymphoma kinase (ALK): Synthesis, in vitro, ex vivo, and in vivo efficacy studies” (Bioorg Med Chem Lett, 2016)
Active and inactive are the calls of the source. The rule behind the calls is not given here.

Experiments:
EML4-ALK (Homo sapiens) = EML4-ALK (Homo sapiens) (UniProt Q9UM73+Q9HC35); experiment: Inhibition of EML4-ALK in human NCI-H3122 cells assessed as inhibition of cell proliferation after 72 hrs by SRB assay; assay type: cell-based
Sequence of EML4-ALK (Homo sapiens) (Q9HC35 whole entry partner): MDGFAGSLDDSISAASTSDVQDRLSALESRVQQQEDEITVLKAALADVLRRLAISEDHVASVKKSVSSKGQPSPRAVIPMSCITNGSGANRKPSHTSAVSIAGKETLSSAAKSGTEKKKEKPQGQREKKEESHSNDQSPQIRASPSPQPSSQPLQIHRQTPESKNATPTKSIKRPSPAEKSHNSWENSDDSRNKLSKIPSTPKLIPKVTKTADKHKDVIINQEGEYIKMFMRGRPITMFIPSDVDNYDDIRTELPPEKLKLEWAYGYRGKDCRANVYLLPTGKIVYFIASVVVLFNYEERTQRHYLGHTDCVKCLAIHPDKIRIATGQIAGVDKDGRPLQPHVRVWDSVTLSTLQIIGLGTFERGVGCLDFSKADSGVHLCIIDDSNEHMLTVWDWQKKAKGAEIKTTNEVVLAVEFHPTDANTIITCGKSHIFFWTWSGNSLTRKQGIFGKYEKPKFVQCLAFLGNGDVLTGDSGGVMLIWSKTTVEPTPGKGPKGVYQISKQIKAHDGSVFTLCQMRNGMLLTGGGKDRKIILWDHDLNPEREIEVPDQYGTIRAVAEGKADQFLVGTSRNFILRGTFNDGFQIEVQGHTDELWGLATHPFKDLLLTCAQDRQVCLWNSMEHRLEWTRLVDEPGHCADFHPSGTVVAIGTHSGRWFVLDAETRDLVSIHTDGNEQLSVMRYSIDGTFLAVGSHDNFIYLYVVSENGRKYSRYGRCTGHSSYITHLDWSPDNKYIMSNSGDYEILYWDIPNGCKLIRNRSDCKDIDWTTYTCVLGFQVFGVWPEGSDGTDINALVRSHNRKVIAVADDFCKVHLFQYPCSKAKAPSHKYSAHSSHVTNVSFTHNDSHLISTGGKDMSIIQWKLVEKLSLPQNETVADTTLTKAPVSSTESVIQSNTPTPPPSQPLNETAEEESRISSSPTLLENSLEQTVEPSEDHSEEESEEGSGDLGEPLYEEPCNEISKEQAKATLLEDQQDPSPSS
Sequence of EML4-ALK (Homo sapiens) (Q9UM73 19-1620 limits assumed): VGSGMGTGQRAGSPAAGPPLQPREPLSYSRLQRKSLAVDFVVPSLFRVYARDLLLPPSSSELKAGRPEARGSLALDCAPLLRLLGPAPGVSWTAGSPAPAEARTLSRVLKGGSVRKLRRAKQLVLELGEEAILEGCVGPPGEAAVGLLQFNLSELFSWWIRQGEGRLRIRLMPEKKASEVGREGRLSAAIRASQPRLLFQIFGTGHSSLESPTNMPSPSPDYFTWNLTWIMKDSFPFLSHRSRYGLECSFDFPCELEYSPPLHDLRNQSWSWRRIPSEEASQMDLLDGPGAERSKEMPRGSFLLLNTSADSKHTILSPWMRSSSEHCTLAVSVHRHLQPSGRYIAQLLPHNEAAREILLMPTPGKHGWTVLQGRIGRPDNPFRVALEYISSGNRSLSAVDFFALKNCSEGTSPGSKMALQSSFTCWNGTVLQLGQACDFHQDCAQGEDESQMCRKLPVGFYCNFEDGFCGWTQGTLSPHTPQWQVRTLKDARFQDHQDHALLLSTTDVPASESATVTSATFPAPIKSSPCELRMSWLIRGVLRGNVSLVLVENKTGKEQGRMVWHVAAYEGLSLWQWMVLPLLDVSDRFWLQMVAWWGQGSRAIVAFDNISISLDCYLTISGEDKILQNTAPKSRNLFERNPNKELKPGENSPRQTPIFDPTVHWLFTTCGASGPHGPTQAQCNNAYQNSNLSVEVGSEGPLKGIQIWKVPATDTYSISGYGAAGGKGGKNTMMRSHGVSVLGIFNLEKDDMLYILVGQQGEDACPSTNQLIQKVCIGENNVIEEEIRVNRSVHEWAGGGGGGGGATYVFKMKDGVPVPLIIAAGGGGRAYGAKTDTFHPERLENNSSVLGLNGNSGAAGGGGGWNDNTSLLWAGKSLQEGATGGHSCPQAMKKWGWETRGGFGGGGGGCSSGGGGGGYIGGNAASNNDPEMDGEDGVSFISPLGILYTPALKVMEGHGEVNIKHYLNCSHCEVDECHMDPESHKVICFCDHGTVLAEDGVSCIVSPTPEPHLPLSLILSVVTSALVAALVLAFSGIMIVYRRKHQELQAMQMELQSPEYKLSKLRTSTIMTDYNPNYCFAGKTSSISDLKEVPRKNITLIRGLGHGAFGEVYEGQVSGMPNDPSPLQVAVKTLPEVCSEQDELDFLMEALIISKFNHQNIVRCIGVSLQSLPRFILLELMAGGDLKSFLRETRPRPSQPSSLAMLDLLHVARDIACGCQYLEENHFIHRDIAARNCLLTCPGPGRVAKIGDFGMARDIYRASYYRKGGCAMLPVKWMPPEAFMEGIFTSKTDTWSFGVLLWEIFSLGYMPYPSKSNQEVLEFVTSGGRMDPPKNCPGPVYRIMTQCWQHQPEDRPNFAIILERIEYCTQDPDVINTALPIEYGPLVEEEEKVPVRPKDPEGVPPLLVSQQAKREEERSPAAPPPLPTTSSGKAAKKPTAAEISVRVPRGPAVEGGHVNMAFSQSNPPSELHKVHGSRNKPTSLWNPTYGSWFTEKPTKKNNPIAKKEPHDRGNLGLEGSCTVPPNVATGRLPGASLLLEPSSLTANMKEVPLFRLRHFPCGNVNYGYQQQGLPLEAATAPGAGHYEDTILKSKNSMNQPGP

BaF3 = experiment: Inhibition of ALK L1196M mutant in mouse BA/F3 cells assessed as inhibition of cell proliferation after 72 hrs by WST1 assay; assay type: cell-based
[1] = molecular target: ALK tyrosine kinase receptor (Homo sapiens, UniProt Q9UM73, L1196M); experiment: Inhibition of ALK L1196M mutant (unknown origin) after 30 mins by HTRF assay
Sequence of ALK tyrosine kinase receptor (Homo sapiens, UniProt Q9UM73, L1196M) (Q9UM73 19-1620 L1196M limits assumed): as the sequence (Q9UM73 19-1620 limits assumed) above, with L1178M counted along it

[2] = molecular target: ALK tyrosine kinase receptor (Homo sapiens, UniProt Q9UM73); experiment: Inhibition of wild type ALK (unknown origin) after 30 mins by HTRF assay
Sequence of ALK tyrosine kinase receptor (Homo sapiens, UniProt Q9UM73) (Q9UM73 whole entry): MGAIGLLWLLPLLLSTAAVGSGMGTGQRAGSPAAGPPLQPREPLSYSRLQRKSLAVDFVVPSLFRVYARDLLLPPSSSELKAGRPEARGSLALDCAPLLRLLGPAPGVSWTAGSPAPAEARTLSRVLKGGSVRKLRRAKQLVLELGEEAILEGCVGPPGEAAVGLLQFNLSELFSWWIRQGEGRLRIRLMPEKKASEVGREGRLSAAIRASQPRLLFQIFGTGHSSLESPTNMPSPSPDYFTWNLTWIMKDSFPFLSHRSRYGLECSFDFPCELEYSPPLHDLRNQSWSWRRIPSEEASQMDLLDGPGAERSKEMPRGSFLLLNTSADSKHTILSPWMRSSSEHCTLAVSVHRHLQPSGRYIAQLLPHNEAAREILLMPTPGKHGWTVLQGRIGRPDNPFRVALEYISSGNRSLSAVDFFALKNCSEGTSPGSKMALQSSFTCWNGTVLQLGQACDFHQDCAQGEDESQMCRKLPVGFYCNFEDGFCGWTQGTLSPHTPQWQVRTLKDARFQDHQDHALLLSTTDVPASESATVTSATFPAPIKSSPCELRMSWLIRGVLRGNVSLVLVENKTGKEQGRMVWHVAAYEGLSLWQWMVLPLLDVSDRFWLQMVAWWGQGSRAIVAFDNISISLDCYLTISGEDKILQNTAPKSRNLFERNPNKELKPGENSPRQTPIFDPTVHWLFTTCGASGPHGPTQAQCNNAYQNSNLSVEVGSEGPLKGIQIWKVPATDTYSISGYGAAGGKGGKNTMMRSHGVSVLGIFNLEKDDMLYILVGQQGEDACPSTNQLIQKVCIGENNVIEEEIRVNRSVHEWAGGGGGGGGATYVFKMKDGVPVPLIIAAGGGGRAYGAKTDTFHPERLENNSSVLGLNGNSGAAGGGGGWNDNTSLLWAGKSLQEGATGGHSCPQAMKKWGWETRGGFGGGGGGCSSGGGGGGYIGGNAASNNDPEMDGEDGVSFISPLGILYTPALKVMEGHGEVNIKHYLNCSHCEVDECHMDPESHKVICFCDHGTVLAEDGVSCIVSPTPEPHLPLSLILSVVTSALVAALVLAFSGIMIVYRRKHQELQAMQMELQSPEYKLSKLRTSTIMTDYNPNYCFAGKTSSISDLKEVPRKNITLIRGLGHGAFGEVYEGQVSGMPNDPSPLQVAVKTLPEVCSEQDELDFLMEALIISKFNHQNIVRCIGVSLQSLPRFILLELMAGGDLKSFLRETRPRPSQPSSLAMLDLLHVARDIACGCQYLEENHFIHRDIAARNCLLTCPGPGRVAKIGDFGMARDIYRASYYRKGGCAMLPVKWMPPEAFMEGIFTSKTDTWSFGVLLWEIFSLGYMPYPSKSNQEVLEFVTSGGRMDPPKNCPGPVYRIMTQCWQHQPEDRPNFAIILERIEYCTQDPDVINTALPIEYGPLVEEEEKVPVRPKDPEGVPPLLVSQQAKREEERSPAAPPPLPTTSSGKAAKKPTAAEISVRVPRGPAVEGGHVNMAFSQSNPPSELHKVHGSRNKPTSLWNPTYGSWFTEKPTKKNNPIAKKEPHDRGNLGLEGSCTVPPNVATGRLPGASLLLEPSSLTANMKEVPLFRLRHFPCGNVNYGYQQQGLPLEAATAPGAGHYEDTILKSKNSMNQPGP

NCI-H3122 = experiment: Antitumor activity against human NCI-H3122 cells xenografted in SCID mouse assessed as tumor growth inhibition at 50 mg/kg, po administered qd for 14 days; assay type: functional, organism-based

IC50 [1]	IC50 [2]	SMILES	CC50 (EML4-ALK (Homo sapiens))	CC50 (BaF3)	TGI (NCI-H3122)
9.9 nM	6.1 nM	COc1cc2c(cc1Nc1ncc(Cl)c(Nc3ccccc3S(=O)(=O)C(C)C)n1)CCC(NC(=O)CO)C2(C)C (stereo not drawn)	44 nM	86 nM	
222 nM	122 nM	COc1cc2c(cc1Nc1ncc(Cl)c(Nc3ccccc3S(=O)(=O)C(C)C)n1)C(C)(C)/C(=N/N1CCOCC1)CC2	732 nM	1640 nM	
200 nM	44 nM	COc1cc2c(cc1Nc1ncc(Cl)c(Nc3ccccc3S(=O)(=O)C(C)C)n1)C(C)(C)/C(=N/N1CCN(C)CC1)CC2	2830 nM	2600 nM	
	212 nM	COc1cc2c(cc1Nc1ncc(Cl)c(Nc3ccccc3S(=O)(=O)C(C)C)n1)CC/C(=N\O)C2(C)C	276 nM	1530 nM	
94 nM	27 nM	COc1cc2c(cc1Nc1ncc(Cl)c(Nc3ccccc3S(=O)(=O)C(C)C)n1)C(C)(C)C(N)CC2 (stereo not drawn)	2090 nM	1750 nM	
		COc1cc2c(cc1Nc1ncc(Cl)c(Nc3ccccc3S(=O)(=O)C(C)C)n1)CCC(=O)C2(C)C		432 nM	
40 nM	40 nM	COc1cc2c(cc1Nc1ncc(Cl)c(Nc3ccccc3S(=O)(=O)C(C)C)n1)CC/C(=N\N1CCOCC1)C2(C)C	30 nM	416 nM	
201 nM	52 nM	COc1cc2c(cc1Nc1ncc(Cl)c(Nc3ccccc3S(=O)(=O)C(C)C)n1)C(C)(C)/C(=N/NC(C)=O)CC2	146 nM	640 nM	
		COc1cc2c(cc1Nc1ncc(Cl)c(Nc3ccccc3S(=O)(=O)C(C)C)n1)C(C)(C)C(=O)CC2		2000 nM	
		Cc1cc(Nc2ncc(Cl)c(Nc3ccccc3S(=O)(=O)C(C)C)n2)c(OC(C)C)cc1C1CCNCC1	38 nM	75 nM	Active
40 nM	21 nM	COc1cc2c(cc1Nc1ncc(Cl)c(Nc3ccccc3S(=O)(=O)C(C)C)n1)CC/C(=N\NC(C)=O)C2(C)C	128 nM	314 nM	
42 nM	29 nM	COc1cc2c(cc1Nc1ncc(Cl)c(Nc3ccccc3S(=O)(=O)C(C)C)n1)CC/C(=N\NC(N)=O)C2(C)C	117 nM	334 nM	
109 nM	34 nM	COc1cc2c(cc1Nc1ncc(Cl)c(Nc3ccccc3S(=O)(=O)C(C)C)n1)C(C)(C)C(O)CC2 (stereo not drawn)	726 nM	1600 nM	
3.6 nM	4.2 nM	COc1cc2c(cc1Nc1ncc(Cl)c(Nc3ccccc3S(=O)(=O)C(C)C)n1)CCC(NC(=O)CN(C)C)C2(C)C (stereo not drawn)	39 nM	71 nM	
56 nM	21 nM	COc1cc2c(cc1Nc1ncc(Cl)c(Nc3ccccc3S(=O)(=O)C(C)C)n1)CCC(O)C2(C)C (stereo not drawn)	99 nM	299 nM	
600 nM	424 nM	COc1cc2c(cc1Nc1ncc(Cl)c(Nc3ccccc3S(=O)(=O)C(C)C)n1)C(C)(C)/C(=N/O)CC2	1220 nM	1360 nM	
97 nM	16 nM	COc1cc2c(cc1Nc1ncc(Cl)c(Nc3ccccc3S(=O)(=O)C(C)C)n1)C(C)(C)/C(=N/NC(N)=O)CC2	146 nM	400 nM	
37 nM	18 nM	COc1cc2c(cc1Nc1ncc(Cl)c(Nc3ccccc3S(=O)(=O)C(C)C)n1)CC/C(=N\NC(=N)N)C2(C)C	235 nM	1580 nM	
100 nM	16 nM	COc1cc2c(cc1Nc1ncc(Cl)c(Nc3ccccc3S(=O)(=O)C(C)C)n1)C(C)(C)/C(=N/NC(=N)N)CC2	2400 nM	2090 nM	
